# Laboratory results taken from publication PMC10791743, “Selective CK1α degraders exert antiproliferative activity against a broad range of human cancer cell lines” (Nature Communications, 2024).
# Where “and” joins values, the source holds several entries; their conditions need not be identical. Equal entries are not always repeated. Where two headings read alike, the source gives them in different places.
# How the values were obtained:
# [1] = tested on: CRBN−/− MOLM-13 cells; test: Wild type versus CRBN−/− MOLM-13 cells (viability, CRBN dependence); type: cell-based, human; design: key to cell viability, dose-response replicate values: % viability = 100 − % activity (RLU normalized to negative control); settings: for cell viability, dose-response replicate values: MOLM-13 CRBN KO
# Description: Having identified SJ7095 as a compound with a potent antiproliferative effect in MOLM-13 cells, we next examined whether the observed effect was CRBN-dependent. […] In an orthogonal approach, we tested SJ7095 in wild-type and CRBN-knockout MOLM-13 cells in a cell viability assay (Supplementary Fig. 1b).
# CRBN^−/− MOLM-13 cells were created using CRISPR-Cas9 technology. Briefly, 1 million MOLM-13 cells were transiently transfected with precomplexed ribonuclear proteins (RNPs) consisting of 400 pmol of chemically modified sgRNA (Synthego), 135pmol of SpCas9 protein (St. Jude Protein Production Core), and 500 ng of pMaxGFP (Lonza) via nucleofection (Lonza, 4D-Nucleofector™ X-unit) using solution SF and program EO100 in a 100 µl cuvette according to the manufacturer’s recommended protocol. Transfected cells (GFP+) were single-cell sorted by flow cytometry (St. Jude Flow Cytometry and Cell Sorting Shared Resource) into 96-well tissue culture-treated plates 5 days post nucleofection. Cells were clonally expanded and screened for the desired targeted modification (out-of-frame indels) via targeted deep sequencing using gene-specific primers with partial Illumina adapter overhangs as previously described. Genotyping of clones was performed using CRIS.py[59]. Knockout clones were identified as clones containing only out-of-frame indels. PowerPlex® Fusion System (Promega) was used to confirm final clone identification (Hartwell Center for Biotechnology at St. Jude). All clones tested negative for mycoplasma by the MycoAlert^TMPlus Mycoplasma Detection Kit (Lonza). CRBN knockout confirmed by immunoblot (Supplementary Material).
# MOLM-13 cells were plated in Corning 8804BC white 384-well assay plates at the appropriate cell number per well and incubated overnight at 37 °C in a humidified 5 % CO2 incubator. Compounds were transferred to the assay plate from a dose-response plate using a Labcyte Echo 650 Acoustic Liquid Handler (Beckman Coulter , USA). Cytotoxicity was determined following 72 h of incubation using Promega’s CellTiter-Glo reagent according to the manufacturer’s recommendation.
# Luminescence was measured on the Envision plate reader (PerkinElmer, USA). Raw luminescence relative light unit (RLU) values for each compound at each concentration were normalized to obtain % activity using the following equation (1): 100 × [(mean(negctrl) – compound)/(mean (negctrl) – mean (posctrl))]. The % activity was converted to % viability using the following equation (2):
# (100 – % activity), and then pooled from replicate experiments prior to fitting. Here, negctrl and posctrl refer to the negative (DMSO) and positive controls (staurosporine) on each plate. Dose-response curves were fit to the Hill equation using the GraphPad Prism (version 10). […]
# [2] = target: T1, CRBN (Homo sapiens, UniProt Q96SW2); test: CRBN fluorescence polarization (FP) displacement assay; type: binding; design: key: % activity normalized to DMSO (0) and CC-220 (100) controls
# T1 construct: 6XHis (N)
# T1 sequence (Q96SW2 whole entry): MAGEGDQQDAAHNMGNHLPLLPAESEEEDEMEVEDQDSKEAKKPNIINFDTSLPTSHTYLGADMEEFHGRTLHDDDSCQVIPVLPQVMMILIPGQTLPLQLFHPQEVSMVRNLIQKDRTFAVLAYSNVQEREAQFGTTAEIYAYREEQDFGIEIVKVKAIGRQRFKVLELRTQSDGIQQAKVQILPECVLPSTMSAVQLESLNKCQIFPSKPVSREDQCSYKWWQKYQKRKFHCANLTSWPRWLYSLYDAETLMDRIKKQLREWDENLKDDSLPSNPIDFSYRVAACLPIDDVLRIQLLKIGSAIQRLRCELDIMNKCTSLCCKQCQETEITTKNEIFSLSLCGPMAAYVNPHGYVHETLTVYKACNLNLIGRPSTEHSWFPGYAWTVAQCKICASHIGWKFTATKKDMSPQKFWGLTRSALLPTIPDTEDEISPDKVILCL
# T1 sequence (Q16531 whole entry partner): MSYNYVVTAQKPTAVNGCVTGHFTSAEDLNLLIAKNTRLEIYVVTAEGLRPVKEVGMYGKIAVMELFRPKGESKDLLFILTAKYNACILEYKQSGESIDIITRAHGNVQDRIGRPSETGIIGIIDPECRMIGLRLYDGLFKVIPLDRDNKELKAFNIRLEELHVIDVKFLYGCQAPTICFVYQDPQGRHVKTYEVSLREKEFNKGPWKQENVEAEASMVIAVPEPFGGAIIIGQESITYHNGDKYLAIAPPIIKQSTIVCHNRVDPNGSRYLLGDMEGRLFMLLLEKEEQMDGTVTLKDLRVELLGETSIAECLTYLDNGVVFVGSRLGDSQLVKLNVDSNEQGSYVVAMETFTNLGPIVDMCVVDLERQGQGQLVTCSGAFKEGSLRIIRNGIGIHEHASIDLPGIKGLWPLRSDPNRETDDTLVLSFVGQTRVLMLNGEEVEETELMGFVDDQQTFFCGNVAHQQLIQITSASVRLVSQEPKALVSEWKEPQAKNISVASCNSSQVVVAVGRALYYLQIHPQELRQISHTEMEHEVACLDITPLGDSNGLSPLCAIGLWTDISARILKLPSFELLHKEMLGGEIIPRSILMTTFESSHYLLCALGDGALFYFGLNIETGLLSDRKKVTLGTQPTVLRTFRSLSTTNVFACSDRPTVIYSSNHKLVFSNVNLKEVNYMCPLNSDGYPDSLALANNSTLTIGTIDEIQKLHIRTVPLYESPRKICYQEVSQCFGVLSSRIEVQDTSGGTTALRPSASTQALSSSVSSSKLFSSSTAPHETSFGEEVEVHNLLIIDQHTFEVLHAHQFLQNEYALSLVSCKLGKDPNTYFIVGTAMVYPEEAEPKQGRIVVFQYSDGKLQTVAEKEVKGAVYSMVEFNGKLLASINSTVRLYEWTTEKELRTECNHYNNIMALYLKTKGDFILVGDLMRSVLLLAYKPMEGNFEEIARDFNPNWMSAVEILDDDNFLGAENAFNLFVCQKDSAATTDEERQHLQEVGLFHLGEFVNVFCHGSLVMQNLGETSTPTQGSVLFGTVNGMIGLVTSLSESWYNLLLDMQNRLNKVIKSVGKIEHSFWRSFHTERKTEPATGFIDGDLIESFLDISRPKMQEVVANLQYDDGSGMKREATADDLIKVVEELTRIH
# Method: The assay cocktail was prepared by combining 6XHis-CRBN-DDB1 protein (200 nM) and Cy5-O-Len probe (30 nM) in 20 mM HEPES pH 7, 150 mM NaCl, 0.005% Tween-20 assay buffer. […] Then 20 μL of the assay cocktail was dispensed to wells of the assay plate with a Multidrop Combi Reagent Dispenser (Thermo Fisher Scientific, USA). The plates were incubated in the dark for 1 h at room temperature and then read on an Envision plate reader (Perkin Elmer, USA). Raw intensity values for each compound at each concentration were normalized to obtain % activity using the following equation: 100×[(mean(negctrl)–compound)/(mean (negctrl)–mean (posctrl))], and then pooled from replicate experiments prior to fitting. Here, negctrl and posctrl refer to the negative (DMSO) and positive controls (CC-220) on each plate. Dose-response curves were fit to the Hill equation using the GraphPad Prism (version 10).
# [3] = target: CK1α (Homo sapiens, UniProt P48729+Q96SW2); test: CK1α immunoblotting in MOLM-13 cells; type: cell-based; design: immunoblot analysis of CK1α in MOLM-13 cells following treatment with increasing concentrations of SJ7095 over 4 h; endogenous in cells; host or cells: MOLM-13 (DSMZ ACC 554); settings: for CK1a western blot quantification: CK1a data from blots in fig 2b
# Sequence of CK1α (P48729 whole entry, the tested form may be a part): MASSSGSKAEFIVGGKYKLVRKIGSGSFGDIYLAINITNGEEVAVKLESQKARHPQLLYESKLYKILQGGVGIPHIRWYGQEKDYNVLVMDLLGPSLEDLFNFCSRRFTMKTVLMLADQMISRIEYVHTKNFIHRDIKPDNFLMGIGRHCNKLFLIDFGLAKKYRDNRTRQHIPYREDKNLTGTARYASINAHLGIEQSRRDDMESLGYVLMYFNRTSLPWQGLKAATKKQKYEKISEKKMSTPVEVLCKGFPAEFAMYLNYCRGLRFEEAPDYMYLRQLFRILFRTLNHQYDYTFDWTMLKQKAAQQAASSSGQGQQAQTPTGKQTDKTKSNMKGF
# Sequence of CK1α (Q96SW2 whole entry, the tested form may be a part): as the sequence (Q96SW2 whole entry) above
# Sequence of CK1α (Q16531 whole entry partner, the tested form may be a part): as the sequence (Q16531 whole entry partner) above
# Method: Frozen pellets of ~1 million cells were lysed in 150 µl of SDS lysis buffer (60 mM Tris/HCl pH 7, 10% glycerol, 2% SDS, 5% beta-mercaptoethanol, 0.02% bromophenol blue, 0.5% protease and phosphatase inhibitor cocktail (Sigma Aldrich)). When cells were resuspended, samples were heated for 3 min at 99 °C then put on ice. Samples were then fragmented by sonication for 10 0.5-s pulses (550 Sonic Dismembrator, Fisher Scientific) and heated again at 99 °C for 2 min. 15 μl of each sample was added to the wells of a 4–20% polyacrylamide gel (Bio-Rad). A mixture of 2 μl of Precision Plus Protein Unstained Standards and 2 μl of Precision Plus Protein All Blue Standards (Bio-Rad) was used for the size marker. After electrophoresis, gels were transferred to nitrocellulose membrane using the Bio-Rad Trans-Blot Turbo system on the mixed molecular weight setting. Membranes were blocked for 1 h in Li-Cor Intercept Blocking Buffer then probed overnight at 4 °C with primary antibody, at 1:1000 dilution or 1:2000 dilution for actin, in Li-Cor Intercept Antibody Diluent. The following morning, membranes were washed three times for 5 min with TBS + 0.05% Tween-20, probed with fluorescent secondary antibodies (goat anti-rabbit IRDye 800CW and goat anti-mouse IRDye 680RD, Li-Cor) for 1 h at room temperature in the dark at 1:10,000 dilution, and washed again 3 times. Blots were imaged with the Li-Cor Odyssey CLx and analyzed using Image Studio Version 5.2.
# [4] = time course 0-8 hrs, relative to no treatment
# [5] = western blot quantification, relative to DMSO
structure (smiles),measurement,setting,value
O=C1CCC(N2Cc3cc(Nc4noc5ccccc45)ccc3C2=O)C(=O)N1 (stereo not shown) [SJ3149],viability at 0.000508 µM,"[1]; Homo sapiens, MOLM-13, MOLM-13 CRBN KO, Conc 0.000508 uM, read-out: cell viability, dose-response replicate values",113%
same,viability at 0.00152416 µM,"[1]; Homo sapiens, MOLM-13, MOLM-13 CRBN KO, Conc 0.00152416 uM, read-out: cell viability, dose-response replicate values",116%
same,viability at 0.00457247 µM,"[1]; Homo sapiens, MOLM-13, MOLM-13 CRBN KO, Conc 0.00457247 uM, read-out: cell viability, dose-response replicate values",120%
same,viability at 0.0137174 µM,"[1]; Homo sapiens, MOLM-13, MOLM-13 CRBN KO, Conc 0.0137174 uM, read-out: cell viability, dose-response replicate values",115%
same,viability at 0.0411523 µM,"[1]; Homo sapiens, MOLM-13, MOLM-13 CRBN KO, Conc 0.0411523 uM, read-out: cell viability, dose-response replicate values",116%
same,viability at 0.123457 µM,"[1]; Homo sapiens, MOLM-13, MOLM-13 CRBN KO, Conc 0.123457 uM, read-out: cell viability, dose-response replicate values",113%
same,viability at 0.37037 µM,"[1]; Homo sapiens, MOLM-13, MOLM-13 CRBN KO, Conc 0.37037 uM, read-out: cell viability, dose-response replicate values",118%
same,viability at 10 µM,"[1]; Homo sapiens, MOLM-13, MOLM-13 CRBN KO, Conc 10 uM, read-out: cell viability, dose-response replicate values",80.2%
same,"cell viability, dose-response replicate values",[1]; Conc 0.000508 uM,112.4 and 118.871
same,"cell viability, dose-response replicate values",[1]; Conc 0.00152416 uM,110.951 and 120.77
same,"cell viability, dose-response replicate values",[1]; Conc 0.00457247 uM,113.675 and 126.396
same,"cell viability, dose-response replicate values",[1]; Conc 0.0137174 uM,112.684 and 118.779
same,"cell viability, dose-response replicate values",[1]; Conc 0.0411523 uM,113.146 and 122.731
same,"cell viability, dose-response replicate values",[1]; Conc 0.123457 uM,114.423 and 122.764
same,"cell viability, dose-response replicate values",[1]; Conc 0.37037 uM,115.466 and 130.548
same,"cell viability, dose-response replicate values",[1]; Conc 1.11111 uM,110.229 and 104.531 and 126.2
same,"cell viability, dose-response replicate values",[1]; Conc 3.33333 uM,104.594 and 98.0101 and 119.909
same,"cell viability, dose-response replicate values",[1]; Conc 10 uM,76.5849 and 88.9707
same,"CRBN binding FP, Activity","[2]; SJ3149, [Compound] 0.25625 mM",17.1311 and 16.8724 and 13.6243
same,"CRBN binding FP, Activity","[2]; SJ3149, [Compound] 0.76875 mM",34.3137 and 35.3073 and 29.4577
same,"CRBN binding FP, Activity","[2]; SJ3149, [Compound] 2.31250 mM",56.4886 and 56.6964 and 54.8148
same,"CRBN binding FP, Activity","[2]; SJ3149, [Compound] 6.93750 mM",75.4128 and 74.3041 and 71.3624
same,"CRBN binding FP, Activity","[2]; SJ3149, [Compound] 20.81250 mM",81.1017 and 84.4669 and 74.3386
same,"CRBN binding FP, Activity","[2]; SJ3149, [Compound] 62.50000 mM",71.4654 and 75.3676 and 66.9577
same,"CK1α protein, time course","[3]; MOLM-13, 1 μM, 0-8 h",near complete loss of CK1α protein by 1 h
same,DC50,"[3]; MOLM-13, 4 h, read-out: CK1α DC50 (immunoblot)",3.7 nM and 4 nM
same,Dmax,"[3]; MOLM-13, 4 h, read-out: CK1α Dmax (immunoblot)",95%
same,CK1a western blot quantification,"[3]; SJ3149 0.001 uM, relative to DMSO",0.9925 and 0.9819 and 0.7065
same,CK1a western blot quantification,"[3]; SJ3149 0.01 uM, relative to DMSO",0.3125 and 0.2648 and 0.1727
same,CK1a western blot quantification,"[3]; SJ3149 0.1 uM, relative to DMSO",0.1087 and 0.1074 and 0.06013
same,CK1a quantified protein expression (western blot),"[3]; time 8 hrs, relative to no treatment, 3 western blots",0.0615 and 0.09529 and 0.04877
same,"IC50 (line fit, sigmoidal 4PL) of CK1a expression versus time","[3]; time course 0-8 hrs, X axis is time",0.403
same,"Bottom (line fit, sigmoidal 4PL) of CK1a expression versus time",[3]; [4],0.04517
same,"Top (line fit, sigmoidal 4PL) of CK1a expression versus time",[3]; [4],0.8089
same,DC50,"[3]; western blot quantification, blots in fig 2b, read-out: IC50 (sigmoidal 4PL fit) of CK1a protein level",3.75 nM
same,Bottom (sigmoidal 4PL fit) of CK1a protein level,[3]; [5],0.07909
same,Top (sigmoidal 4PL fit) of CK1a protein level,[3]; [5],1.004
